Experimental data as given in US7314863B2, “Cyclic peptidomimetic urokinase receptor antagonists” (Wilex AG, priority 1999, dated 2008).
Positions of bridges follow the written chain, without caps; N, C: chain ends. Non-standard residues stand in square brackets, D forms with d. Residues, ends and D or L forms follow the SMILES beside them. Tic = O=C(O)[C@@H]1Cc2ccccc2CN1; Nle = CCCC[C@H](N)C(=O)O; Orn = NCCC[C@H](N)C(=O)O; Dab = NCC[C@H](N)C(=O)O; Dap = NC[C@H](N)C(=O)O

Columns and labels:
[1] = Peptide stability in heparinized human complete blood (HPLC); format: in vitro ADME; settings: for stability in heparinized human blood: 37° C., 20.5 h, HPLC of plasma; for distribution between plasma and blood cells: heparinized human blood, peak integrals versus PBS control
Protocol: (§1) The stability of uPA-derived peptides in human serum or complete blood was assayed in vitro.
(§2) For stability studies in human complete blood, coagulation of venous blood was inhibited by heparin sodium (1 000 IU per 10 ml of complete blood), and the blood was used freshly. The peptides to be tested were added to the body fluids in the form of peptide-mixture stock solutions (≧1 μg per peptide in H2O) at a concentration of 5 μg/100 μl of serum or 200 μl of complete blood (per peptide) and incubated at 37° C. for various times. Prior to HPLC analysis, complete blood incubations were centrifuged at 16 000×g at room temperature for 5 min and the plasma in the supernatant was removed.
(§3) Sera and plasmas were prepurified via HLB precolumns (Waters GmbH, Oasis HLB extraction cartridge 1 cm^3/30 mg) prior to HPLC analysis. For this purpose, 100 μl of liquid were diluted with PBS to 1 ml and applied to said HLB precolumns equilibrated with 1 ml of 100% methanol and 1 ml of H2O. The columns were washed with 1ml of 5% methanol in H2O and eluted with 1 ml of 100% methanol. The first 200 μl (4 drops) of the eluate were discarded as void volume. The next 500 μl of eluate were diluted with 500 μl of PBS and analyzed by HPLC. The remaining 300 μl of the eluate were discarded. HPLC analysis was carried out using a YMC-5 C18 analytical column and a 20-60% gradient of H2O, 0.1% trifluoroacetic acid and acetonitrile, 0.1% trifluoroacetic acid over 30 min and detecting the analytes at 220 nm.
The stability in heparinized human blood (FIG. 4b) was studied by adding 750 μl of freshly prepared heparinized human blood to 37.5 μg of the peptides. Immediately thereafter, 375 μl were removed by centrifugation. 100 μl of the plasma supernatant were analyzed (middle profile). The remaining 375 μl were incubated with gentle agitation at 37° C. for 20.5 h and then analyzed (bottom profile). As a control, 5 μg of the peptides had already been admixed with 1 ml of PBS and analyzed (top profile).

[2] = Peptide stability in human serum (HPLC); format: in vitro ADME; settings: 37° C., 20.5 h
Protocol: as §1
Human sera were prepared by allowing venous blood to coagulate without anti-coagulant in polypropylene tubes at 37° C. for 45 min. The clots adhering to the vessel wall were removed using a plastic stick and removed by centrifugation at 1200×g at room temperature for 12 min. The serum in the supernatant was removed and either used freshly for stability studies or frozen in aliquots at −20° C. for further use.
as §2
as §3, with “The remaining 300 μl of the eluate were discarded. HPLC analysis was carried out using a YMC-5 C18 analytical column and a 20-60% gradient of H2O, 0.1% trifluoroacetic acid and acetonitrile, 0.1% trifluoroacetic acid over 30 min and detecting the analytes at 220 nm.” left out
The stability of the peptides inhuman serum (FIG. 4a) was studied by adding a mixture of in each case 12.5 μg of the peptides to about 250 μl of serum. 100 μl thereof were diluted with PBS to 1 ml, prepurified on an HLB precolumn and analyzed immediately by HPLC (middle profile). A further 100 μl were analyzed after 20.5 h of incubation at 37° C. […] As a control, in each case 5 μg of the peptides were admixed with 1 ml of PBS and analyzed (top profile). […]

plasmin = test: Sensitivity to the tissue protease plasmin (HPLC); format: in vitro ADME; settings: 0.05 U plasmin, 37° C., 30 min, pH 7.5
Protocol: The sensitivity of peptides against the attack of various proteases of the digestive tract was determined in vitro using purified enzymes under suitable buffer conditions. In general, 10 μg of peptide were incubated in a 100 μl volume with 2 μg of protease at 37° C. for 30 min under the buffer conditions for the activity controls as stated by the manufacturer. After incubation and dilution with 300 μl of H2O, the mixtures were analyzed directly, without prepurification via a precolumn, by HPLC using a 20-60% gradient of H2O, 0.1% trifluoroacetic acid and acetonitrile, 0.1% trifluoroacetic acid.
Pepsin (Sigma, Deisenhofen, Germany) was incubated with peptides in 52 mM HCl. Incubations with trypsin (Sigma) were carried out in 63 mM sodium phosphate pH 7.6. Chymotrypsins α, β, γ,δ (ICN) were incubated in 50 mM CaCl2 and 40 mM Tris/HCl pH 7.8. This was followed by incubating with bacteriae proteinase K in unbuffered water. The positive control used was the *peptide cyclo[19,31]-uPA16-32 which corresponds to the original sequence of the uPA omega loop except for the cysteine bridge. The peptide sensitivity against the tissue protease plasmin (Sigma) was assayed in mixtures with 10 or 5 μg of peptides and 0.05 U of plasmin in 100 μl of 200 mM sodium phosphate pH 7.5 at 37° C. and a 30 min incubation period.
FIG. 5 depicts HPLC profiles of peptide variants prior to (top profiles) and after (bottom profiles) incubation with plasmin. Part (A) of the figure depicts the unaltered lead structure cyclo[21,29][D-Cys^21Cys^29]-uPA21-30 with lysine at position 23, (B) the ornithine-substituted variant cyclo[21,29][D-Cys^21Orn^23Cys^29]-uPA21-30, (C) the diaminobutyric acid-substituted variant cyclo[21,29][D-Cys^21Dab^23Cys^29]-uPA21-30, (D) the diaminopropionic acid-substituted variant cyclo[21,29][D-Cys^21Dap^23Cys^29]-uPA21-30, (E) the norleucine-substituted variant cyclo[21,29][D-Cys^21Nle^23Cys^29]-uPA21-30 and (F) the arginine-substituted variant cyclo[21,29][D-Cys^21Arg^23Cys^29]-uPA21-30. The protease plasmin appears in the bottom profiles in each case at approx. 17.5 min.

uPAR = target: T1, uPAR (Homo sapiens, UniProt Q03405); test: Flow cytometry: inhibition of FITC-pro-uPA binding to uPAR on PMA-stimulated U937 cells; settings: for IC50: FIG. 1a, read-out: IC50 (inhibition of uPA/uPAR interaction) (converted); for affinity/activity for uPAR lower than that of ATF: relative to ATF
T1 construct: human promyeloid cell line U937 as source for cellular native uPAR; endogenous in cells; host or cells: U937 cells stimulated with PMA
Protocol: The capacity of the synthetic peptides for inhibiting uPA/uPAR interaction was determined using the human promyeloid cell line U937 as source for cellular native uPAR by means of flow cytometry on a FACScan flow cytometer (Becton-Dickinson, Heidelberg, Germany) (Chuchulowski et al., Fibrinolysis 6, Suppl. 4 (1992), 95-102; Magdolen et al., (1996), supra). The U937 cells were stimulated with […] phorbol 12-myristate 13-acetate (PMA) for 48 h. After stimulation with PMA, the U937 cells express considerable amounts of cell surface-associated uPAR.
The stimulated cells were treated with 50 m glycine-HCl, 0.1 NaCl, pH 3.6 at room temperature for 1 min, in order to dissociate endogenous receptor-bound uPA. Subsequently, the acidic buffer was neutralized by 0.5 M HEPES, 100 mM NaCl, pH 7.5. The cells were then immediately washed twice with PBS/0.1% bovine serum albumin (BSA) and centrifuged at 300×g at room temperature for 10 min. The cells were resuspended in PBS/0.1% BSA, adjusted to a concentration of 10^6 cells per ml and incubated simultaneously with 1.6 ng of FITC-conjugated pro-uPA and different amounts of the synthetic peptides at room temperature for 45 min. Prior to analysis, propidium iodide, a fluorescent dye binding specifically double-stranded DNA, was added to each sample, in order to determine the viability of the analyzed U937 cells. Damaged, propidium iodide-labeled cells were excluded from the analysis.

T1 sequence (Q03405 23-305): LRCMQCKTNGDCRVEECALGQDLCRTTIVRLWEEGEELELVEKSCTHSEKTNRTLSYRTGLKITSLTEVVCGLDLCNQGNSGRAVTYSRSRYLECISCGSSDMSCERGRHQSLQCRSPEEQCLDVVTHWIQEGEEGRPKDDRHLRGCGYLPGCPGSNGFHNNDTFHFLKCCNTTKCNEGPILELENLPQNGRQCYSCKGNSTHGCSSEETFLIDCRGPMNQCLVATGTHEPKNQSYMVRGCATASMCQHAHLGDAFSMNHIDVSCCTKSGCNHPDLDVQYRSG

Compound | stability in heparinized human blood [1] | stability in human serum [2] | stability against plasmin (plasmin) | further results
cyclo[19,31]-uPA16-32 [reference compound] | instability | could no longer be detected | – | part of the amount of peptide added degraded ([1]; complete blood, 10-15 min between addition and prepurification): > 80%
CC[C@H](C)[C@@H]1NC(=O)[C@H](CC(N)=O)NC(=O)[C@H](CO)NC(=O)[C@@H]2Cc3ccccc3CN2C(=O)[C@H](Cc2ccc(O)cc2)NC(=O)[C@H](CCCCN)NC(=O)[C@H](CC(N)=O)NC(=O)[C@H](N)CSSC[C@@H](C(=O)N[C@@H](Cc2c[nH]c3ccccc23)C(=O)O)NC1=O [cyclo[21,29][D-Cys^21,Tic^25,Cys^29]-uPA21-30] (H-[dC]NKY[Tic]SNICW-OH; disulfide 1-9; N-terminus assumed) | stable | unaltered | – | distribution between plasma and blood cells [1]: distributed mainly in the plasma
CCCC[C@@H]1NC(=O)[C@H](CC(N)=O)NC(=O)[C@H](N)CSSC[C@@H](C(=O)N[C@@H](Cc2c[nH]c3ccccc23)C(=O)O)NC(=O)[C@H]([C@@H](C)CC)NC(=O)[C@H](CC(N)=O)NC(=O)[C@H](CO)NC(=O)[C@H](Cc2ccccc2)NC(=O)[C@H](Cc2ccc(O)cc2)NC1=O [cyclo[21,29][D-Cys^21Nle^23Cys^29]-uPA21-30] (H-[dC]N[Nle]YFSNICW-OH; disulfide 1-9; N-terminus assumed) | – | – | stable against plasmin | –
CC[C@H](C)[C@@H]1NC(=O)[C@H](CC(N)=O)NC(=O)[C@H](CO)NC(=O)[C@H](Cc2ccccc2)NC(=O)[C@H](Cc2ccc(O)cc2)NC(=O)[C@H](CN)NC(=O)[C@H](CC(N)=O)NC(=O)[C@H](N)CSSC[C@@H](C(=O)N[C@@H](Cc2c[nH]c3ccccc23)C(=O)O)NC1=O [cyclo[21,29][D-Cys^21Dap^23Cys^29]-uPA21-30] (H-[dC]N[Dap]YFSNICW-OH; disulfide 1-9; N-terminus assumed) | – | – | two small unidentified peaks appeared | –
CC[C@H](C)[C@@H]1NC(=O)[C@H](CC(N)=O)NC(=O)[C@H](CO)NC(=O)[C@H](Cc2ccccc2)NC(=O)[C@H](Cc2ccc(O)cc2)NC(=O)[C@H](CCCCN)NC(=O)[C@H](CC(N)=O)NC(=O)[C@H](N)CSSC[C@@H](C(=O)N[C@@H](Cc2c[nH]c3ccccc23)C(=O)O)NC1=O [cyclo[21,29][D-Cys^21,Cys^29]uPA21-30] (H-[dC]NKYFSNICW-OH; disulfide 1-9; N-terminus and C-terminus assumed) | stable | unaltered | a new unknown peak appeared | IC50 (uPAR): 78 nM; affinity/activity for uPAR lower than that of ATF (uPAR): 4; distribution between plasma and blood cells [1]: distributed mainly in the plasma
CC[C@H](C)[C@@H]1NC(=O)[C@H](CC(N)=O)NC(=O)[C@H](CO)NC(=O)[C@H](Cc2ccccc2)NC(=O)[C@H](Cc2ccc(O)cc2)NC(=O)[C@H](CCCN)NC(=O)[C@H](CC(N)=O)NC(=O)[C@H](N)CSSC[C@@H](C(=O)N[C@@H](Cc2c[nH]c3ccccc23)C(=O)O)NC1=O [cyclo[21,29][D-Cys^21Orn^23Cys^29]-uPA21-30] (H-[dC]N[Orn]YFSNICW-OH; disulfide 1-9; N-terminus assumed) | – | – | stable against plasmin | –
CC[C@H](C)[C@@H]1NC(=O)[C@H](CC(N)=O)NC(=O)[C@H](CO)NC(=O)[C@H](Cc2ccccc2)NC(=O)[C@H](Cc2ccc(O)cc2)NC(=O)[C@H](CCCCN)NC(=O)[C@H](CC(N)=O)NC(=O)[C@@H](N)CSSC[C@@H](C(=O)N[C@@H](Cc2c[nH]c3ccccc23)C(=O)O)NC1=O [cyclo[21,29][Cys^21,29]-uPA21-30, reference compound] (H-CNKYFSNICW-OH; disulfide 1-9; N-terminus and C-terminus assumed) | – | – | – | IC50 (uPAR): 2260 nM; affinity/activity for uPAR lower than that of ATF (uPAR): hundred-fold lower
CC[C@H](C)[C@@H]1NC(=O)[C@H](CC(N)=O)NC(=O)[C@H](CO)NC(=O)[C@H](Cc2ccccc2)NC(=O)[C@H](Cc2ccc(O)cc2)NC(=O)[C@H](CCN)NC(=O)[C@H](CC(N)=O)NC(=O)[C@H](N)CSSC[C@@H](C(=O)N[C@@H](Cc2c[nH]c3ccccc23)C(=O)O)NC1=O [cyclo[21,29][D-Cys^21Dab^23Cys^29]-uPA21-30] (H-[dC]N[Dab]YFSNICW-OH; disulfide 1-9; N-terminus assumed) | – | – | stable against plasmin | –
CC[C@H](C)[C@@H]1NC(=O)[C@H](CC(N)=O)NC(=O)[C@H](CO)NC(=O)[C@H](Cc2ccccc2)NC(=O)[C@H](Cc2ccc(O)cc2)NC(=O)[C@H](CCCNC(=N)N)NC(=O)[C@H](CC(N)=O)NC(=O)[C@H](N)CSSC[C@@H](C(=O)N[C@@H](Cc2c[nH]c3ccccc23)C(=O)O)NC1=O [cyclo[21,29][D-Cys^21Arg^23Cys^29]-uPA21-30] (H-[dC]NRYFSNICW-OH; disulfide 1-9; N-terminus assumed) | – | – | plasmin-sensitive | –
